Assay results from US9738648B2, “Pyridines, pyrimidines, and pyrazines, as BTK inhibitors and uses thereof” (Merck Patent GmbH, priority 2013, dated 2017).

target: T1, full-length human BTK (Homo sapiens, UniProt Q06187); experiment: BTK IC50 Enzyme Assay (Assay A), microfluidic off-chip mobility shift kinase assay; format: biochemical; conditions: kinKDR peptide substrate, 90 min at 27° C.
T1 construct: 2.5× stocks of full-length human BTK (08-080) from CarnaBio USA, Inc; purchased CarnaBio USA, Inc., Natick, Mass; 08-080
Method: BTK IC50 Enzyme Assay (Assay A)
The following describes a microfluidic, off-chip mobility shift kinase assay used to measure inherent potency of compounds against BTK enzyme.
2.5× stocks of full-length human BTK (08-080) from CarnaBio USA, Inc., Natick, Mass., 1.6×ATP and appropriate kinKDR peptide substrate (FITC-AHA-EEPLYWSFPAKKK10 NH2) were prepared in kinase reaction buffer consisting of 25 mM MgCl2, 0.015% Brij-35 (30%), 100 mM Hepes, pH 7.5, and 10 mM DTT.
5 uL of enzyme buffer and 7.5 uL of ATP/kinKDR peptide substrate mix were added to Matrix (#115304) 384-well, sterile, polypropylene plates (Thermo Fisher Scientific, 15 Hudson, N.H.) with 125 nL of serially diluted compounds prepared in 100% DMSO, and incubated for 90 min. at 27° C. Following the incubation period, reactions were stopped by adding 60 uL stop buffer consisting of 100 mM Hepes, pH 7.5, 0.015% Brij-35 (30%), 0.277% Coating Reagent #3 (Caliper Life Sciences, Mountain View, Calif.), 5% DMSO. Stopped reactions were monitored at −2 PSI, −3000 V/−700 V in a LabChip 3000 plate 20 reader from Caliper Life Sciences, a PerkinElmer Company (Hopkinton, Mass.), and the activity was measured by off-chip mobility shift assay measuring the charge/mass difference between substrate and product resulting from peptide phosphorilation. IC50 and efficacy were determined by plotting log [Inhibitor] vs. % Activity in GeneData Screener (Basel, Switzerland).

T1 sequence (Q06187 whole entry): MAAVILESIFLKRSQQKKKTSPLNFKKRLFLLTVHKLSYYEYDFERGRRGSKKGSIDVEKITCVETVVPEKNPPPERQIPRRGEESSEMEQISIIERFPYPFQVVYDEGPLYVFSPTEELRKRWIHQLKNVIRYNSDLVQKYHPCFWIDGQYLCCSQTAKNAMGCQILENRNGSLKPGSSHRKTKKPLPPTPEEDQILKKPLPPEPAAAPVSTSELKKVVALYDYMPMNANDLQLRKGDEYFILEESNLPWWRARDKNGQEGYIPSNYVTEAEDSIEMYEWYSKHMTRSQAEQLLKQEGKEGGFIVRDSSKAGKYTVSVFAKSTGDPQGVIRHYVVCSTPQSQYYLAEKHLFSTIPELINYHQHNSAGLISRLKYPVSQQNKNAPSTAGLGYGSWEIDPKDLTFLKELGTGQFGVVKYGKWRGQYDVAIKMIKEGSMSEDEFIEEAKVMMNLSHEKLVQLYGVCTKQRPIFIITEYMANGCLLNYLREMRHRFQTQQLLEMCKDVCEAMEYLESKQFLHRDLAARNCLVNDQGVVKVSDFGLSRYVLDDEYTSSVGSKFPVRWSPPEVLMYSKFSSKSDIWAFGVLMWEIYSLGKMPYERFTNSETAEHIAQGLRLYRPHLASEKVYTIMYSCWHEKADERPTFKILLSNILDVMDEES

IC50 [nM]	Compound
100 to 1000	CN(C)C/C=C/C(=O)N[C@H]1C[C@@H](n2ncc3ncnc(Oc4ccc(Oc5ccccc5)cc4)c32)C1 [Compound 36, (E)-4-(dimethylamino)-N-((1s,3s)-3-(7-(4-phenoxyphenoxy)-1H-pyrazolo[4,3-d]pyrimidin-1-yl)cyclobutyl)but-2-enamide]
100 to 1000	C=CC(=O)N1CCC(Cn2ccc3ncnc(Oc4ccc(Oc5ccccc5)cc4)c32)CC1 [Compound 37, 1-(4-((4-(4-phenoxyphenoxy)-5H-pyrrolo[3,2-d]pyrimidin-5-yl)methyl)piperidin-1-yl)prop-2-en-1-one]
100 to 1000	C/C=C/C(=O)N1CC(n2ccc3ncnc(Oc4ccc(Oc5ccccc5)cc4)c32)C1 [Compound 38, (E)-1-(3-(4-(4-phenoxyphenoxy)-5H-pyrrolo[3,2-d]pyrimidin-5-yl)azetidin-1-yl)but-2-en-1-one]
100 to 1000	C=CC(=O)N[C@H]1CC[C@H](n2ccc3ncnc(Oc4ccc(Oc5ccccc5)cc4)c32)CC1 [Compound 39, N-(trans-4-(4-(4-phenoxyphenoxy)-5H-pyrrolo[3,2-d]pyrimidin-5-yl)cyclohexyl)acrylamide]
100 to 1000	C=CC(=O)N1CCC(Cn2ccc3ncnc(-c4cccc(Oc5ccccc5)c4)c32)C1 (stereo not drawn) [Compound 40, 1-(3-((4-(3-phenoxyphenyl)-5H-pyrrolo[3,2-d]pyrimidin-5-yl)methyl)pyrrolidin-1-yl)prop-2-en-1-one]
100 to 1000	CN(C)C/C=C/C(=O)N[C@H]1C[C@H](n2ncc3ncnc(Oc4ccc(Oc5ccccc5)cc4)c32)C1 [Compound 41, (E)-4-(dimethylamino)-N-((1r,3r)-3-(7-(4-phenoxyphenoxy)-1H-pyrazolo[4,3-d]pyrimidin-1-yl)cyclobutyl)but-2-enamide]
1000 to 5000	C=CC(=O)NCCn1ccc2ncnc(Oc3ccc(Oc4ccccc4)cc3)c21 [Compound 42, N-(2-(4-(4-phenoxyphenoxy)-5H-pyrrolo[3,2-d]pyrimidin-5-yl)ethyl)acrylamide]
1000 to 5000	C=CC(=O)N1CC(n2ccc3ncnc(Oc4cnn(Cc5ccccc5)c4)c32)C1 [Compound 43, 1-(3-(4-((1-benzyl-1H-pyrazol-4-yl)oxy)-5H-pyrrolo[3,2-d]pyrimidin-5-yl)azetidin-1-yl)prop-2-en-1-one]
1000 to 5000	C=CC(=O)N1CCCC(Cn2ccc3ncnc(-c4cccc(Oc5ccccc5)c4)c32)C1 (stereo not drawn) [Compound 44, 1-(3-((4-(3-phenoxyphenyl)-5H-pyrrolo[3,2-d]pyrimidin-5-yl)methyl)piperidin-1-yl)prop-2-en-1-one]
1000 to 5000	C=CC(=O)N1CCC(Cn2ccc3ncnc(-c4cccc(Oc5ccccc5)c4)c32)CC1 [Compound 45, 1-(4-((4-(3-phenoxyphenyl)-5H-pyrrolo[3,2-d]pyrimidin-5-yl)methyl)piperidin-1-yl)prop-2-en-1-one]
1000 to 5000	C=CC(=O)N1CCC(Cn2ccc3ncnc(-c4ccc(Oc5ccccc5)cc4)c32)C1 (stereo not drawn) [Compound 46, 1-(3-((4-(4-phenoxyphenyl)-5H-pyrrolo[3,2-d]pyrimidin-5-yl)methyl)pyrrolidin-1-yl)prop-2-en-1-one]
> 5000	C=CC(=O)N1CCC(Cn2ccc3ncnc(-c4ccc(Oc5ccccc5)cc4)c32)CC1 [Compound 47, 1-(4-((4-(4-phenoxyphenyl)-5H-pyrrolo[3,2-d]pyrimidin-5-yl)methyl)piperidin-1-yl)prop-2-en-1-one]
> 5000	C=CC(=O)N1CCCC(Cn2ccc3ncnc(-c4ccc(Oc5ccccc5)cc4)c32)C1 (stereo not drawn) [Compound 48, 1-(3-((4-(4-phenoxyphenyl)-5H-pyrrolo[3,2-d]pyrimidin-5-yl)methyl)piperidin-1-yl)prop-2-en-1-one]
> 5000	CC(C)=CC(=O)N1CC(n2ccc3ncnc(Oc4ccc(Oc5ccccc5)cc4)c32)C1 [Compound 49, 3-methyl-1-(3-(4-(4-phenoxyphenoxy)-5H-pyrrolo[3,2-d]pyrimidin-5-yl)azetidin-1-yl)but-2-en-1-one]
> 5000	C=CC(=O)N1CCC(n2ccc3ncnc(-c4cccc(Oc5ccccc5)c4)c32)CC1 [Compound 50, 1-(4-(4-(3-phenoxyphenyl)-5H-pyrrolo[3,2-d]pyrimidin-5-yl)piperidin-1-yl)prop-2-en-1-one]
> 5000	C=C(C)C(=O)N1CC(n2ccc3ncnc(Oc4ccc(Oc5ccccc5)cc4)c32)C1 [Compound 51, 2-methyl-1-(3-(4-(4-phenoxyphenoxy)-5H-pyrrolo[3,2-d]pyrimidin-5-yl)azetidin-1-yl)prop-2-en-1-one]
100 to 1000	C=CC(=O)N1CC(n2ccc3ncc(-c4cnn(Cc5ccccc5)c4)nc32)C1 [Compound 52, 1-(3-(3-(1-benzyl-1H-pyrazol-4-yl)-5H-pyrrolo[2,3-b]pyrazin-5-yl)azetidin-1-yl)prop-2-en-1-one]

IC50 [nM]	Compound
1000 to 5000	CCC/C=C(\C#N)C(=O)N1CCC(n2ccc3ncnc(Oc4ccc(Oc5ccccc5)cc4)c32)CC1 [Compound 55, (E)-2-(4-(4-(4-phenoxyphenoxy)-5H-pyrrolo[3,2-d]pyrimidin-5-yl)piperidine-1-carbonyl)hex-2-enenitrile]
1000 to 5000	N#CN1CCC(n2ccc3ncnc(Oc4ccc(Oc5ccccc5)cc4)c32)CC1 [Compound 56, 4-(4-(4-phenoxyphenoxy)-5H-pyrrolo[3,2-d]pyrimidin-5-yl)piperidine-1-carbonitrile]
100 to 1000	N#CNC(=O)N1CCC(n2ccc3ncnc(Oc4ccc(Oc5ccccc5)cc4)c32)CC1 [Compound 57, N-cyano-4-(4-(4-phenoxyphenoxy)-5H-pyrrolo[3,2-d]pyrimidin-5-yl)piperidine-1-carboxamide]
1000 to 5000	N#CN1CCC(Cn2ccc3ncnc(Oc4ccc(Oc5ccccc5)cc4)c32)C1 (stereo not drawn) [Compound 58, 3-[[4-(4-phenoxyphenoxy)-5H-pyrrolo[3,2-d]pyrimidin-5-yl]methyl]pyrrolidine-1-carbonitrile]
> 5000	N#CN1CCC(Cn2ccc3ncnc(Oc4ccc(Oc5ccccc5)cc4)c32)CC1 [Compound 59, 4-[[4-(4-phenoxyphenoxy)-5H-pyrrolo[3,2-d]pyrimidin-5-yl]methyl]piperidine-1-carbonitrile]
1000 to 5000	N#CN1CCCC1Cn1ccc2ncnc(Oc3ccc(Oc4ccccc4)cc3)c21 (stereo not drawn) [Compound 61, 2-[[4-(4-phenoxyphenoxy)-5H-pyrrolo[3,2-d]pyrimidin-5-yl]methyl]pyrrolidine-1-carbonitrile]
1000 to 5000	N#CN1CCCCC1Cn1ccc2ncnc(Oc3ccc(Oc4ccccc4)cc3)c21 (stereo not drawn) [Compound 62, 2-[[4-(4-phenoxyphenoxy)-5H-pyrrolo[3,2-d]pyrimidin-5-yl]methyl]piperidine-1-carbonitrile]
> 5000	N#CN1CCCC(Cn2ccc3ncnc(Oc4ccc(Oc5ccccc5)cc4)c32)C1 (stereo not drawn) [Compound 63, 3-[[4-(4-phenoxyphenoxy)-5H-pyrrolo[3,2-d]pyrimidin-5-yl]methyl]piperidine-1-carbonitrile]
100 to 1000	N#CN1CCCC(n2ccc3ncnc(Oc4ccc(Oc5ccccc5)cc4)c32)C1 (stereo not drawn) [Compound 64, 3-[4-(4-phenoxyphenoxy)-5H-pyrrolo[3,2-d]pyrimidin-5-yl]piperidine-1-carbonitrile]
1000 to 5000	N#CN1CCC1Cn1ccc2ncnc(Oc3ccc(Oc4ccccc4)cc3)c21 (stereo not drawn) [Compound 65, 2-[[4-(4-phenoxyphenoxy)-5H-pyrrolo[3,2-d]pyrimidin-5-yl]methyl]azetidine-1-carbonitrile]
1000 to 5000	N#CN1CC(Cn2ccc3ncnc(Oc4ccc(Oc5ccccc5)cc4)c32)C1 [Compound 66, 3-[[4-(4-phenoxyphenoxy)-5H-pyrrolo[3,2-d]pyrimidin-5-yl]methyl]azetidine-1-carbonitrile]
100 to 1000	CN(C#N)[C@H]1C[C@H](n2ccc3ncnc(Oc4ccc(Oc5ccccc5)cc4)c32)C1 [Compound 67, (1R,3R)—N-cyano-N-methyl-3-[4-(4-phenoxyphenoxy)-5H-pyrrolo[3,2-d]pyrimidin-5-yl]cyclobutan-1-amine]
1000 to 5000	N#CN1CC(n2ccc3ncnc(Oc4ccc(Oc5ccccc5)cc4)c32)C1 [Compound 68, 3-[4-(4-phenoxyphenoxy)-5H-pyrrolo[3,2-d]pyrimidin-5-yl]azetidine-1-carbonitrile]
1000 to 5000	N#CN1CC2(CC(n3ccc4ncnc(Oc5ccc(Oc6ccccc6)cc5)c43)C2)C1 [Compound 69, 6-[4-(4-phenoxyphenoxy)-5H-pyrrolo[3,2-d]pyrimidin-5-yl]-2-azaspiro[3.3]heptane-2-carbonitrile]
100 to 1000	CN(C#N)[C@H]1CC[C@H](n2ccc3ncnc(Oc4ccc(Oc5ccccc5)cc4)c32)CC1 [Compound 70, (1R,4R)—N-cyano-N-methyl-4-[4-(4-phenoxyphenoxy)-5H-pyrrolo[3,2-d]pyrimidin-5-yl]cyclohexan-1-amine]
> 5000	N#CN1CC[C@@H](n2ccc3ncnc(Oc4ccc(Oc5ccccc5)cc4)c32)C1 [Compound 71, (3R)-3-[4-(4-phenoxyphenoxy)-5H-pyrrolo[3,2-d]pyrimidin-5-yl]pyrrolidine-1-carbonitrile]
